No end group written: not given here.
Tested on: sera from tuberculosis patients
Assay: ELISA recognition of synthetic MTP40 peptides by human sera
Assay type: binding
Settings: sera from active tuberculosis patients having B(+) sputum; peptide coated at 3 micrograms per well

Sequence: WLKLGLVEFGGVAKLNAEVMS [S698, synthetic peptide derived from M. tuberculosis MTP40 protein]
- percentage of sera recognizing the peptide (ELISA): 20.8%

Reference: patent US5254459A, “Nucleotide and amino acid sequences of protein MTP40 of M. tuberculosis and synthetic peptides derived therefrom” (priority 1992, dated 1993)
